For 16 compounds, T/C results are on record in PubChem BioAssay AID266 (DTP/NCI, 2004).

Each structure is given as a SMILES string. Several values for one entry are separate records, joined by “and”; a condition that tells them apart may be missing. Identical values can stand only once. Records with an inconclusive call do not appear.

The test system of this assay is Nude mice, LX-1 lung xenograft intrarenal, tumor weight T/C. Kind of assay: NCI In Vivo Anticancer Drug Screen. Data for tumor model Human Lung LX-1 Xenograft (intrarenal inoculation) in NU/NU BALB/C (nude) mice. To be noted: endpoint: mean tumor weight change, higher = larger tumour. On the procedure:
The antitumor activity of compounds was measured in mice bearing transplantable tumors. Survival or tumor size were measured and the results are expressed as the measurement made in the treated group (T) divided by the measurement made in the vehicle treated control group (C). The tumor model used in this assay is Human Lung LX-1 Xenograft (intrarenal inoculation) in NU/NU BALB/C (nude) mice
On the technique in general: Xenograft models place foreign cells or tissue in a host animal.

Setting [1] is: dose: 100.0 mg/kg/injection, schedule: Q01DX010 (sc), vehicle: Klucel (hydroxypropylcellulose) (HPC).
The mark [2] stands for this setting: dose: 200.0 mg/kg/injection, schedule: Q01DX010 (sc), vehicle: Klucel (hydroxypropylcellulose) (HPC).
Where [3] appears, read: dose: 300.0 mg/kg/injection, schedule: Q04DX003 (sc), vehicle: saline with Tween-80.
The mark [4] stands for this setting: dose: 600.0 mg/kg/injection, schedule: Q04DX003 (sc), vehicle: saline with Tween-80.
The mark [5] stands for this setting: dose: 1200.0 mg/kg/injection, schedule: Q04DX003 (sc), vehicle: saline with Tween-80.
[6] abbreviates: dose: 2400.0 mg/kg/injection, schedule: Q04DX003 (sc), vehicle: saline with Tween-80.
[7] abbreviates: dose: 300.0 mg/kg/injection, schedule: Q04DX003 (sc), vehicle: saline.
Setting [8] is: dose: 600.0 mg/kg/injection, schedule: Q04DX003 (sc), vehicle: saline.
The mark [9] stands for this setting: dose: 1200.0 mg/kg/injection, schedule: Q04DX003 (sc), vehicle: saline.

On to `COc1cc2cc(c1Cl)N(C)C(=O)C[C@H](OC(=O)[C@H](C)N(C)C(C)=O)[C@]1(C)O[C@H]1[C@H](C)[C@@H]1C[C@@](O)(NC(=O)O1)[C@H](OC)C=C/C=C(\C)C2`, for which the T/C (dose: 50.0 mg/kg/injection, schedule: Q01DX010 (sc), vehicle: Klucel (hydroxypropylcellulose) (HPC)) is 72 % of control; the T/C under setting [1] is 3 % of control; the T/C under setting [2] is 1 % of control; the T/C (dose: 12.5 micrograms/kg/injection, schedule: Q01DX010 (sc), vehicle: Klucel (hydroxypropylcellulose) (HPC)) is 224 % of control; the T/C (dose: 25.0 micrograms/kg/injection, schedule: Q01DX010 (sc), vehicle: Klucel (hydroxypropylcellulose) (HPC)) was 77 % of control; the T/C (dose: 50.0 micrograms/kg/injection, schedule: Q01DX010 (sc), vehicle: Klucel (hydroxypropylcellulose) (HPC)) was 73 % of control. Also, the T/C is 32 % of control (dose: 100.0 micrograms/kg/injection, schedule: Q01DX010 (sc), vehicle: Klucel (hydroxypropylcellulose) (HPC)) and 2 % of control (dose: 200.0 micrograms/kg/injection, schedule: Q01DX010 (sc), vehicle: Klucel (hydroxypropylcellulose) (HPC)).
Consider `COc1ccc2c(ccc3oc([N+](=O)[O-])cc32)c1`, for which the T/C runs as follows: (dose: 150.0 mg/kg/injection, schedule: Q04DX003 (sc), vehicle: Klucel (hydroxypropylcellulose) (HPC)) 88 % of control; (dose: 300.0 mg/kg/injection, schedule: Q04DX003 (sc), vehicle: Klucel (hydroxypropylcellulose) (HPC)) 96 % of control; (dose: 600.0 mg/kg/injection, schedule: Q04DX003 (sc), vehicle: Klucel (hydroxypropylcellulose) (HPC)) 86 % of control.
As for `N=C(N)c1ccc(/C=C/c2ccc(C(=N)N)cc2O)cc1`, the T/C was 86 % of control (dose: 37.5 mg/kg/injection, schedule: Q04DX003 (sc), vehicle: water); 56 % of control (dose: 75.0 mg/kg/injection, schedule: Q04DX003 (sc), vehicle: water); 101 % of control (dose: 150.0 mg/kg/injection, schedule: Q04DX003 (sc), vehicle: water); 43 % of control (dose: 300.0 mg/kg/injection, schedule: Q04DX003 (sc), vehicle: water).
For the compound `COc1cc(C(C)(C)C)cc(OC)c1C(O)(c1c(OC)cc(C(C)(C)C)cc1OC)c1c(OC)cc(C(C)(C)C)cc1OC`, the T/C is 60 % of control under setting [3], 54 % of control under setting [4], 54 % of control under setting [5] and 73 % of control under setting [6].
`CCCC(=O)Oc1ccc(/C=N/NC(N)=S)nc1`: the T/C reads like this: (dose: 100.0 mg/kg/injection, schedule: Q01DX010 (sc), vehicle: saline with Tween-80) 66 % of control; (dose: 200.0 mg/kg/injection, schedule: Q01DX010 (sc), vehicle: saline with Tween-80) 42 % of control; (dose: 400.0 mg/kg/injection, schedule: Q01DX010 (sc), vehicle: saline with Tween-80) 19 % of control.
Turning to `O=C(CN1CCOCC1)Nc1nc(-c2ccc(Cl)cc2)cs1`, the T/C (dose: 100.0 mg/kg/injection, schedule: Q04DX003 (ip), vehicle: saline with Tween-80) was 118 % of control; the T/C (dose: 200.0 mg/kg/injection, schedule: Q04DX003 (ip), vehicle: saline with Tween-80) is 87 % of control; the T/C (dose: 400.0 mg/kg/injection, schedule: Q04DX003 (ip), vehicle: saline with Tween-80) is 106 % of control; the T/C (dose: 800.0 mg/kg/injection, schedule: Q04DX003 (ip), vehicle: saline with Tween-80) was 89 % of control.
With `CC(/C=C/c1ccccc1)=Nc1ccccc1`, the T/C is 63 % of control under setting [3], 108 % of control under setting [4], 83 % of control under setting [5] and 100 % of control under setting [6].
Consider `O=C(NO)c1ccccc1`, for which the T/C was 120 % of control under setting [1] and 150 % of control under setting [2].
As for `CC[C@H]1CN2CCc3cc(OC)c(OC)cc3[C@@H]2C[C@@H]1C[C@H]1NCCc2cc(OC)c(OC)cc21`, where the note is “dose: 4.0 mg/kg/injection, schedule: Q01DX010 (sc), vehicle: saline”, the T/C was 81 % of control.
For the compound `O=S(=O)(N=N/C=C1\C=CC=CN1O)c1cccs1`, the T/C is, setting by setting: (dose: 37.5 mg/kg/injection, schedule: Q04DX003 (sc), vehicle: saline with Tween-80) 121 % of control; (dose: 75.0 mg/kg/injection, schedule: Q04DX003 (sc), vehicle: saline with Tween-80) 82 % of control; (dose: 150.0 mg/kg/injection, schedule: Q04DX003 (sc), vehicle: saline with Tween-80) 103 % of control.
Consider `CN(Cc1cnc2nc(N)nc(N)c2n1)c1ccc(C(=O)N[C@@H](CCC(=O)O)C(=O)O)cc1`, for which the T/C is 72 % of control and 84 % of control (dose: 1.0 mg/kg/injection, schedule: Q01DX010 (sc), vehicle: sodium bicarbonate); 47 % of control (dose: 4.0 mg/kg/injection, schedule: Q01DX010 (sc), vehicle: sodium bicarbonate).
For the compound `O=C1CCC(=O)N1CO`, the T/C (dose: 150.0 mg/kg/injection, schedule: Q04DX003 (sc), vehicle: saline) is 95 % of control; the T/C under setting [7] is 93 % of control; the T/C under setting [8] was 82 % of control; the T/C under setting [9] was 63 % of control.
On to `N#CC(OC1OC(COC2OC(CO)C(O)C(O)C2O)C(O)C(O)C1O)c1ccccc1` (centres undefined), for which the T/C under setting [7] is 162 % of control; the T/C under setting [8] was 115 % of control; the T/C under setting [9] is 193 % of control; the T/C (dose: 2400.0 mg/kg/injection, schedule: Q04DX003 (sc), vehicle: saline) was 158 % of control.
In the case of `CC(O)CCC(=O)c1ccoc1` (centres undefined), the T/C is 75 % of control (dose: 15.0 mg/kg/injection, schedule: Q01DX010 (ip), vehicle: saline) and 121 % of control (dose: 30.0 mg/kg/injection, schedule: Q01DX010 (ip), vehicle: saline).
Consider `CCCCCCCCCCC(OC(C)=O)C1CCC(C2CCC(C(O)CCCCCCCCCCCCC3C=C(C)OC3=O)O2)O1` (centres undefined), for which the T/C was 93 % of control (dose: 5.0 mg/kg/injection, schedule: Q04DX003 (sc), vehicle: water); 114 % of control (dose: 10.0 mg/kg/injection, schedule: Q04DX003 (sc), vehicle: water); 108 % of control (dose: 20.0 mg/kg/injection, schedule: Q04DX003 (sc), vehicle: water); 110 % of control (dose: 40.0 mg/kg/injection, schedule: Q04DX003 (sc), vehicle: water).
As to `Nc1ncnc2c(C3OC(CO)C(O)C3O)[nH]nc12` (centres undefined), the T/C by setting is: (dose: 75.0 mg/kg/injection, schedule: Q04DX003 (sc), vehicle: suspension in saline) 83 % of control; (dose: 150.0 mg/kg/injection, schedule: Q04DX003 (sc), vehicle: suspension in saline) 37 % of control.
